Data from patent publication US20250353841A1 (BIOGEN MA INC., priority 2022, published 2025).
pIC50: −log10 of the molar value.

Tested on: mutant Huntington (HTT) protein
Test: HTT Mutant HTRF iPSC assay (mHTT protein lowering)
Assay type: cell-based
Conditions: human iPSC derived from a HTT patient with a poly-Q49 mutation

Cc1cn2cc(-c3cc(F)c4nc(C5CCN(C)CC5)cn4c3)cc(C)c2n1 [Compound 9, 8-fluoro-2′,8′-dimethyl-2-(1-methylpiperidin-4-yl)-6,6′-biimidazo[1,2-a]pyridine]
pIC50: 5.05 to 6.00

Cc1cn2cc(-c3cc(F)c4nc(C5CCN(C)CC5)cn4c3)ccc2n1 [Compound 10, 8-fluoro-2′-methyl-2-(1-methylpiperidin-4-yl)-6,6′-biimidazo[1,2-a]pyridine]
pIC50: 5.05 to 6.00

Cn1cc2cc(-c3cc(F)c4nc(C5CCNCC5)cn4c3)ccc2n1 [Compound 11, 5-(8-fluoro-2-(piperidin-4-yl)imidazo[1,2-a]pyridin-6-yl)-2-methyl-2H-indazole]
pIC50: 6.00 to 7.00

CNCCc1cn2cc(-c3cc(C)c4nc(C)cn4n3)cc(F)c2n1 [Compound 12, 2-(6-(2,8-dimethylimidazo[1,2-b]pyridazin-6-yl)-8-fluoroimidazo[1,2-a]pyridin-2-yl)-N-methylethan-1-amine]
pIC50: 6.00 to 7.00

Cc1cn2nc(-c3cc(F)c4nc(CC5CNC5)cn4c3)cc(C)c2n1 [Compound 13, 6-(2-(azetidin-3-ylmethyl)-8-fluoroimidazo[1,2-a]pyridin-6-yl)-2,8-dimethylimidazo[1,2-b]pyridazine]
pIC50: 6.00 to 7.00

Cn1cc2cc(-c3cc(F)c4nc(CC5CCCNC5)cn4c3)cc(F)c2n1 (centres unmarked) [Compound 14, 7-fluoro-5-(8-fluoro-2-(piperidin-3-ylmethyl)imidazo[1,2-a]pyridin-6-yl)-2-methyl-2H-indazole]
pIC50: 6.00 to 7.00

Cc1cn2cc(-c3cc(F)c4nc(CC5CCCNC5)cn4c3)cc(F)c2n1 (centres unmarked) [Compound 15, 8,8′-difluoro-2-methyl-2′-(piperidin-3-ylmethyl)-6,6′-biimidazo[1,2-a]pyridine]
pIC50: 6.00 to 7.00

Cn1cc2cc(-c3cc(F)c4nc(C5CCCNC5)cn4c3)ccc2n1 (centres unmarked) [Compound 16, 5-(8-fluoro-2-(piperidin-3-yl)imidazo[1,2-a]pyridin-6-yl)-2-methyl-2H-indazole]
pIC50: 6.00 to 7.00

Cn1cc2cc(-c3cc(F)c4nc(CC5CCCNC5)cn4c3)ccc2n1 (centres unmarked) [Compound 17, 5-(8-fluoro-2-(piperidin-3-ylmethyl)imidazo[1,2-a]pyridin-6-yl)-2-methyl-2H-indazole]
pIC50: 6.00 to 7.00

CNCCc1cn2cc(-c3cc(F)c4nn(C)cc4c3)cc(F)c2n1 [Compound 18, 2-(8-fluoro-6-(7-fluoro-2-methyl-2H-indazol-5-yl)imidazo[1,2-a]pyridin-2-yl)-N-methylethan-1-amine]
pIC50: 5.05 to 6.00

Cn1cc2cc(-c3cc(F)c4nc(CC5CNC5)cn4c3)cc(F)c2n1 [Compound 19, 5-(2-(azetidin-3-ylmethyl)-8-fluoroimidazo[1,2-a]pyridin-6-yl)-7-fluoro-2-methyl-2H-indazole]
pIC50: 5.05 to 6.00

Cn1cc2cc(-c3cc(F)c4nc(CC5CNC5)cn4c3)ccc2n1 [Compound 20, 5-(2-(azetidin-3-ylmethyl)-8-fluoroimidazo[1,2-a]pyridin-6-yl)-2-methyl-2H-indazole]
pIC50: 5.05 to 6.00

Cc1cn2cc(-c3cc(F)c4nc(CC5CNC5)cn4c3)cc(F)c2n1 [Compound 21, 2-(azetidin-3-ylmethyl)-8,8′-difluoro-2′-methyl-6,6′-biimidazo[1,2-a]pyridine]
pIC50: 5.05 to 6.00

CNCCc1cn2cc(-c3ccc4nn(C)cc4c3)cc(F)c2n1 [Compound 22, 2-(8-fluoro-6-(2-methyl-2H-indazol-5-yl)imidazo[1,2-a]pyridin-2-yl)-N-methylethan-1-amine]
pIC50: 5.05 to 6.00

Cn1cc2cc(-c3cc(F)c4nc(C5CNC5)cn4c3)cc(F)c2n1 [Compound 23, 5-(2-(azetidin-3-yl)-8-fluoroimidazo[1,2-a]pyridin-6-yl)-7-fluoro-2-methyl-2H-indazole]
pIC50: 5.05 to 6.00

CNCCc1cn2cc(-c3cc(F)c4nc(C)cn4c3)cc(F)c2n1 [Compound 24, 2-(8,8′-difluoro-2′-methyl-[6,6′-biimidazo[1,2-a]pyridin]-2-yl)-N-methylethan-1-amine]
pIC50: 5.05 to 6.00

CCN1CCC(c2cn3cc(-c4cc(C)c5nn(C)cc5c4)cc(F)c3n2)CC1 [Compound 25, 5-(2-(1-ethylpiperidin-4-yl)-8-fluoroimidazo[1,2-a]pyridin-6-yl)-2,7-dimethyl-2H-indazole]
pIC50: 6.00 to 7.00

CN1CCC(c2cn3cc(-c4cc(F)c5nn(C)cc5c4)cc(F)c3n2)CC1 [Compound 26, 7-fluoro-5-(8-fluoro-2-(1-methylpiperidin-4-yl)imidazo[1,2-a]pyridin-6-yl)-2-methyl-2H-indazole]
pIC50: 6.00 to 7.00

CCN1CCC(c2cn3cc(-c4cc(C)c5nc(C)cn5c4)cc(F)c3n2)CC1 [Compound 27, 2-(1-ethylpiperidin-4-yl)-8-fluoro-2′,8′-dimethyl-6,6′-biimidazo[1,2-a]pyridine]
pIC50: 6.00 to 7.00

CN1CCC(c2cn3cc(-c4ccc5nn(C)cc5c4)cc(F)c3n2)CC1 [Compound 28, 5-(8-fluoro-2-(1-methylpiperidin-4-yl)imidazo[1,2-a]pyridin-6-yl)-2-methyl-2H-indazole]
pIC50: 5.05 to 6.00

Cn1nnc2ccc(-c3cc(F)c4nc(C5CCNCC5)cn4c3)cc21 [Compound 29, 6-(8-fluoro-2-(piperidin-4-yl)imidazo[1,2-a]pyridin-6-yl)-1-methyl-1H-benzo[d][1,2,3]triazole]
pIC50: 6.00 to 7.00

CCc1nc(C)cn2cc(-c3cc(F)c4nc(C5CCNCC5)cn4c3)cc12 [Compound 30, 6-(1-ethyl-3-methylpyrrolo[1,2-a]pyrazin-7-yl)-8-fluoro-2-(piperidin-4-yl)imidazo[1,2-a]pyridine]
pIC50: > 7.00

Cc1cn2cc(-c3cc(F)c4nc(C5CCNCC5)cn4c3)cc2c(C)n1 [Compound 31, 6-(1,3-dimethylpyrrolo[1,2-a]pyrazin-7-yl)-8-fluoro-2-(piperidin-4-yl)imidazo[1,2-a]pyridine]
pIC50: > 7.00

Cc1cn2cc(-c3cc(F)c4nc(C5CCNCC5)cn4c3)cc(Cl)c2n1 [Compound 32, 8-chloro-8′-fluoro-2-methyl-2′-(piperidin-4-yl)-6,6′-biimidazo[1,2-a]pyridine]
pIC50: 6.00 to 7.00

Fc1cc(-c2ccc3nscc3c2)cn2cc(C3CCNCC3)nc12 [Compound 33, 5-(8-fluoro-2-(piperidin-4-yl)imidazo[1,2-a]pyridin-6-yl)benzo[c]isothiazole]
pIC50: 5.05 to 6.00

Fc1cc(-c2ccn3nccc3c2)cn2cc(C3CCNCC3)nc12 [Compound 34, 8-fluoro-2-(piperidin-4-yl)-6-(pyrazolo[1,5-a]pyridin-5-yl)imidazo[1,2-a]pyridine]
pIC50: 5.05 to 6.00

Cc1csc2cc(-c3cc(F)c4nc(C5CCNCC5)cn4c3)cnc12 [Compound 35, 6-(8-fluoro-2-(piperidin-4-yl)imidazo[1,2-a]pyridin-6-yl)-3-methylthieno[3,2-b]pyridine]
pIC50: 5.05 to 6.00

Fc1cc(-c2ccc3nn(C(F)F)cc3c2)cn2cc(C3CCNCC3)nc12 [Compound 36, 2-(difluoromethyl)-5-(8-fluoro-2-(piperidin-4-yl)imidazo[1,2-a]pyridin-6-yl)-2H-indazole]
pIC50: 5.05 to 6.00

Cc1nc2ccc(-c3cc(F)c4nc(C5CCNCC5)cn4c3)cn2n1 [Compound 37, 6-(8-fluoro-2-(piperidin-4-yl)imidazo[1,2-a]pyridin-6-yl)-2-methyl-[1,2,4]triazolo[1,5-a]pyridine]
pIC50: 5.05 to 6.00

Cc1cc(-c2cc(F)c3nc(C4CCNCC4)cn3c2)ccc1C#N [Compound 38, 4-(8-fluoro-2-(piperidin-4-yl)imidazo[1,2-a]pyridin-6-yl)-2-methylbenzonitrile]
pIC50: 5.05 to 6.00

Fc1cc(-c2cc3ccc(Cl)cc3o2)cn2cc(C3CCNCC3)nc12 [Compound 39, 6-(6-chlorobenzofuran-2-yl)-8-fluoro-2-(piperidin-4-yl)imidazo[1,2-a]pyridine]
pIC50: 5.05 to 6.00

CCc1c[nH]c2ncc(-c3cc(F)c4nc(C5CCNCC5)cn4c3)cc12 [Compound 40, 6-(3-ethyl-1H-pyrrolo[2,3-b]pyridin-5-yl)-8-fluoro-2-(piperidin-4-yl)imidazo[1,2-a]pyridine]
pIC50: 5.05 to 6.00

CCOc1nccc2oc(-c3cc(F)c4nc(C5CCNCC5)cn4c3)cc12 [Compound 41, 4-ethoxy-2-(8-fluoro-2-(piperidin-4-yl)imidazo[1,2-a]pyridin-6-yl)furo[3,2-c]pyridine]
pIC50: 5.05 to 6.00

Cc1cn2cc(-c3cc(F)c4nc(C5CCNCC5)cn4c3)cc(C#N)c2n1 [Compound 42, 8′-fluoro-2-methyl-2′-(piperidin-4-yl)-[6,6′-biimidazo[1,2-a]pyridine]-8-carbonitrile]
pIC50: 5.05 to 6.00

Fc1cccc2sc(-c3cc(F)c4nc(C5CCNCC5)cn4c3)cc12 [Compound 43, 8-fluoro-6-(4-fluorobenzo[b]thiophen-2-yl)-2-(piperidin-4-yl)imidazo[1,2-a]pyridine]
pIC50: 5.05 to 6.00

Fc1cc(-c2ccc3ncsc3c2)cn2cc(C3CCNCC3)nc12 [Compound 44, 6-(8-fluoro-2-(piperidin-4-yl)imidazo[1,2-a]pyridin-6-yl)benzo[d]thiazole]
pIC50: 5.05 to 6.00

COCCCN1CCC(c2cn3cc(-c4cc(C)c5nc(C)cn5n4)cc(F)c3n2)CC1 [Compound 45, 6-(8-fluoro-2-(1-(3-methoxypropyl)piperidin-4-yl)imidazo[1,2-a]pyridin-6-yl)-2,8-dimethylimidazo[1,2-b]pyridazine]
pIC50: > 7.00

COCCN1CCC(c2cn3cc(-c4cc(C)c5nc(C)cn5n4)cc(F)c3n2)CC1 [Compound 46, 6-[8-fluoro-2-[1-(2-methoxyethyl)-4-piperidyl]imidazo[1,2-a]pyridin-6-yl]-2,8-dimethyl-imidazo[1,2-b]pyridazine]
pIC50: > 7.00

Cc1cn2nc(-c3cc(F)c4nc(C5CCN(C(C)C)CC5)cn4c3)cc(C)c2n1 [Compound 47, 6-(8-fluoro-2-(1-isopropylpiperidin-4-yl)imidazo[1,2-a]pyridin-6-yl)-2,8-dimethylimidazo[1,2-b]pyridazine]
pIC50: > 7.00

Fc1cc(-c2cccc3nonc23)cn2cc(C3CCNCC3)nc12 [Compound 48, 4-(8-fluoro-2-(piperidin-4-yl)imidazo[1,2-a]pyridin-6-yl)benzo[c][1,2,5]oxadiazole]
pIC50: 5.05 to 6.00

Cc1nc2cc(-c3cc(F)c4nc(C5CCNCC5)cn4c3)ccc2[nH]1 [Compound 50, 5-(8-fluoro-2-(piperidin-4-yl)imidazo[1,2-a]pyridin-6-yl)-2-methyl-1H-benzo[d]imidazole]
pIC50: 5.05 to 6.00
